Source: patent US20040137592A1, “Novel SMG-1” (Japan Science and Technology Agency, priority 2001, published 2004)
Where two headings read alike, the source gives them in different places.

Columns and labels:
[1] = tested on: BGG-39PTC mRNA in MEF-Tet OFF cells; assay: BGG reporter mRNA accumulation (NMD) in MEF-Tet OFF cells, Northern blotting; format: cell-based; settings: 4.5 hours, 50 ng/ml doxycycline, FIG. 29
Protocol: More particularly, MEF-Tet OFF cells were transfected with the reporter plasmid BGG-WT or the reporter plasmid BGG-39 PTC, and re-inoculated in eight dishes. The cells were then treated for 4.5 hours in the presence of 50 ng/ml doxycycline by various concentrations of caffeine (caff.), wortmannin (wort.), rapamycin (rap.), or cyclohexamide (CHX) shown in FIG. 29.
The Total RNA was analyzed by Northern blotting using the BGG probe. In FIG. 29, “BG WT” means the results in the case of use of the reporter plasmid BGG-WT, “BG PTC” means the results in the case of use of the reporter plasmid BGG-39PTC, and “GAPDH” means the results in the case of use of the cDNA of glyceryl aldehyde-3-phosphate dehydrogenase as a probe. Further, “cont.”, “caff.”, “wort.”, “rap.”, and “CHX” show the results of the control (that is, in the absence of wortmannin, caffeine, rapamycin, and cyclohexamide), the results in the presence of caffeine, the results in the presence of wortmannin, the results in the presence of rapamycin, and the results in the presence of cyclohexamide, respectively.

[2] = tested on: hUpf1/SMG-2 in HeLa cells; assay: mobility shift of hUpf1/SMG-2 in HeLa cells treated with okadaic acid, Western blotting; format: cell-based, human; settings: various concentrations, 4.5 hours, FIG. 23
Protocol: The HeLa cells were treated with various concentrations of okadaic acid (OA; Calbiochem) for 4.5 hours, and then were recovered and dissolved in the 1×SDS sample buffer. After 6% SDS-PAGE was performed, Western blotting using an anti-hUpf1/SMG-2 antibody was performed to determine the mobility shift of hUpf1/SMG-2.

6H-hSMG-1 = target: T1, 6H-hSMG-1 (Homo sapiens, UniProt Q96Q15); assay: in vitro kinase assay of 6H-hSMG-1 with hUpf1/SMG-2 fusion protein (S1096) as substrate; format: biochemical; settings: substrate hUpf1/SMG-2 fusion protein (S1096), read-out: IC50, inhibition of the kinase activity of 6H-hSMG-1
T1 construct: made in house; host or cells: 293T cells transfected with SR6H-hSMG-1; immunoprecipitated with anti-polyhistidine antibody
Protocol: The immunoprecipitates obtained in the Example 6(1) were washed with a lysis buffer F containing 0.25 mol/L LiCl, and then washed two times with a 1×kinase reaction buffer [10 mmol/L HEPES-KOH (pH7.5), 50 mmol/L β-glycerophosphoric acid, 50 mmol/L NaCl, 1 mmol/L dithiothreitol (DTT), and 10 mmol/L MnCl2].
To each of the washed immunoprecipitates, 25 μL of 2×kinase reaction buffer (that is, two-fold concentrations of the above kinase reaction buffer) was added. The phosphorylation reaction was started by adding 10 mmol/L ATP and 370 kBq [γ-^32P] ATP (6000 Ci/mmol; Amersham Pharmacia Biotech) in equal amounts (25 μL) and continued, with occasional stirring, at 30° C. for 30 minutes. The final reaction amount was maintained at 50 μL, then 25 μL of a 4×SDS sample buffer was added to stop the reaction. SDS-PAGE was performed at gel concentrations of 5.5% and 12.5%, and then autoradiography was carried out to detect the phosphorylated proteins. The phosphorylation strength of each protein was measured by an Image Analyzer BAS2000 (Fuji Film).
More particularly, 6H-hSMG-1 was prepared in accordance with the procedure described in Example 7(3). In the presence of various concentrations of wortmannin or caffeine shown in FIG. 26 and FIG. 27, the hUpf1/SMG-2 fusion protein (S1096) prepared in Example 9(3) was used as the substrate, to perform an in vitro kinase assay. […]

[3] = tested on: hUpf1/SMG-2 phosphorylation in HeLa cells; format: cell-based, human; settings: 30 min pretreatment, then 4.5 hours with 50 nmol/L okadaic acid, FIG. 28
Protocol: HeLa cells were pretreated for 30 minutes in the presence or absence of various concentrations of wortmannin, caffeine, or rapamycin shown in FIG. 28. Next, the cells were treated for 4.5 hours in the presence of wortmannin, caffeine, or rapamycin and in the presence or absence of 50 nmol/L okadaic acid. Cell lysates were prepared and analyzed by Western blotting using the anti-Upf1/SMG-2 antibody.
Further, “hUPF1-P” means phosphorylated hUpf1/SMG-2, while “hUPF1” means unphosphorylated hUpf1/SMG-2.

T1 sequence (Q96Q15 111-3661): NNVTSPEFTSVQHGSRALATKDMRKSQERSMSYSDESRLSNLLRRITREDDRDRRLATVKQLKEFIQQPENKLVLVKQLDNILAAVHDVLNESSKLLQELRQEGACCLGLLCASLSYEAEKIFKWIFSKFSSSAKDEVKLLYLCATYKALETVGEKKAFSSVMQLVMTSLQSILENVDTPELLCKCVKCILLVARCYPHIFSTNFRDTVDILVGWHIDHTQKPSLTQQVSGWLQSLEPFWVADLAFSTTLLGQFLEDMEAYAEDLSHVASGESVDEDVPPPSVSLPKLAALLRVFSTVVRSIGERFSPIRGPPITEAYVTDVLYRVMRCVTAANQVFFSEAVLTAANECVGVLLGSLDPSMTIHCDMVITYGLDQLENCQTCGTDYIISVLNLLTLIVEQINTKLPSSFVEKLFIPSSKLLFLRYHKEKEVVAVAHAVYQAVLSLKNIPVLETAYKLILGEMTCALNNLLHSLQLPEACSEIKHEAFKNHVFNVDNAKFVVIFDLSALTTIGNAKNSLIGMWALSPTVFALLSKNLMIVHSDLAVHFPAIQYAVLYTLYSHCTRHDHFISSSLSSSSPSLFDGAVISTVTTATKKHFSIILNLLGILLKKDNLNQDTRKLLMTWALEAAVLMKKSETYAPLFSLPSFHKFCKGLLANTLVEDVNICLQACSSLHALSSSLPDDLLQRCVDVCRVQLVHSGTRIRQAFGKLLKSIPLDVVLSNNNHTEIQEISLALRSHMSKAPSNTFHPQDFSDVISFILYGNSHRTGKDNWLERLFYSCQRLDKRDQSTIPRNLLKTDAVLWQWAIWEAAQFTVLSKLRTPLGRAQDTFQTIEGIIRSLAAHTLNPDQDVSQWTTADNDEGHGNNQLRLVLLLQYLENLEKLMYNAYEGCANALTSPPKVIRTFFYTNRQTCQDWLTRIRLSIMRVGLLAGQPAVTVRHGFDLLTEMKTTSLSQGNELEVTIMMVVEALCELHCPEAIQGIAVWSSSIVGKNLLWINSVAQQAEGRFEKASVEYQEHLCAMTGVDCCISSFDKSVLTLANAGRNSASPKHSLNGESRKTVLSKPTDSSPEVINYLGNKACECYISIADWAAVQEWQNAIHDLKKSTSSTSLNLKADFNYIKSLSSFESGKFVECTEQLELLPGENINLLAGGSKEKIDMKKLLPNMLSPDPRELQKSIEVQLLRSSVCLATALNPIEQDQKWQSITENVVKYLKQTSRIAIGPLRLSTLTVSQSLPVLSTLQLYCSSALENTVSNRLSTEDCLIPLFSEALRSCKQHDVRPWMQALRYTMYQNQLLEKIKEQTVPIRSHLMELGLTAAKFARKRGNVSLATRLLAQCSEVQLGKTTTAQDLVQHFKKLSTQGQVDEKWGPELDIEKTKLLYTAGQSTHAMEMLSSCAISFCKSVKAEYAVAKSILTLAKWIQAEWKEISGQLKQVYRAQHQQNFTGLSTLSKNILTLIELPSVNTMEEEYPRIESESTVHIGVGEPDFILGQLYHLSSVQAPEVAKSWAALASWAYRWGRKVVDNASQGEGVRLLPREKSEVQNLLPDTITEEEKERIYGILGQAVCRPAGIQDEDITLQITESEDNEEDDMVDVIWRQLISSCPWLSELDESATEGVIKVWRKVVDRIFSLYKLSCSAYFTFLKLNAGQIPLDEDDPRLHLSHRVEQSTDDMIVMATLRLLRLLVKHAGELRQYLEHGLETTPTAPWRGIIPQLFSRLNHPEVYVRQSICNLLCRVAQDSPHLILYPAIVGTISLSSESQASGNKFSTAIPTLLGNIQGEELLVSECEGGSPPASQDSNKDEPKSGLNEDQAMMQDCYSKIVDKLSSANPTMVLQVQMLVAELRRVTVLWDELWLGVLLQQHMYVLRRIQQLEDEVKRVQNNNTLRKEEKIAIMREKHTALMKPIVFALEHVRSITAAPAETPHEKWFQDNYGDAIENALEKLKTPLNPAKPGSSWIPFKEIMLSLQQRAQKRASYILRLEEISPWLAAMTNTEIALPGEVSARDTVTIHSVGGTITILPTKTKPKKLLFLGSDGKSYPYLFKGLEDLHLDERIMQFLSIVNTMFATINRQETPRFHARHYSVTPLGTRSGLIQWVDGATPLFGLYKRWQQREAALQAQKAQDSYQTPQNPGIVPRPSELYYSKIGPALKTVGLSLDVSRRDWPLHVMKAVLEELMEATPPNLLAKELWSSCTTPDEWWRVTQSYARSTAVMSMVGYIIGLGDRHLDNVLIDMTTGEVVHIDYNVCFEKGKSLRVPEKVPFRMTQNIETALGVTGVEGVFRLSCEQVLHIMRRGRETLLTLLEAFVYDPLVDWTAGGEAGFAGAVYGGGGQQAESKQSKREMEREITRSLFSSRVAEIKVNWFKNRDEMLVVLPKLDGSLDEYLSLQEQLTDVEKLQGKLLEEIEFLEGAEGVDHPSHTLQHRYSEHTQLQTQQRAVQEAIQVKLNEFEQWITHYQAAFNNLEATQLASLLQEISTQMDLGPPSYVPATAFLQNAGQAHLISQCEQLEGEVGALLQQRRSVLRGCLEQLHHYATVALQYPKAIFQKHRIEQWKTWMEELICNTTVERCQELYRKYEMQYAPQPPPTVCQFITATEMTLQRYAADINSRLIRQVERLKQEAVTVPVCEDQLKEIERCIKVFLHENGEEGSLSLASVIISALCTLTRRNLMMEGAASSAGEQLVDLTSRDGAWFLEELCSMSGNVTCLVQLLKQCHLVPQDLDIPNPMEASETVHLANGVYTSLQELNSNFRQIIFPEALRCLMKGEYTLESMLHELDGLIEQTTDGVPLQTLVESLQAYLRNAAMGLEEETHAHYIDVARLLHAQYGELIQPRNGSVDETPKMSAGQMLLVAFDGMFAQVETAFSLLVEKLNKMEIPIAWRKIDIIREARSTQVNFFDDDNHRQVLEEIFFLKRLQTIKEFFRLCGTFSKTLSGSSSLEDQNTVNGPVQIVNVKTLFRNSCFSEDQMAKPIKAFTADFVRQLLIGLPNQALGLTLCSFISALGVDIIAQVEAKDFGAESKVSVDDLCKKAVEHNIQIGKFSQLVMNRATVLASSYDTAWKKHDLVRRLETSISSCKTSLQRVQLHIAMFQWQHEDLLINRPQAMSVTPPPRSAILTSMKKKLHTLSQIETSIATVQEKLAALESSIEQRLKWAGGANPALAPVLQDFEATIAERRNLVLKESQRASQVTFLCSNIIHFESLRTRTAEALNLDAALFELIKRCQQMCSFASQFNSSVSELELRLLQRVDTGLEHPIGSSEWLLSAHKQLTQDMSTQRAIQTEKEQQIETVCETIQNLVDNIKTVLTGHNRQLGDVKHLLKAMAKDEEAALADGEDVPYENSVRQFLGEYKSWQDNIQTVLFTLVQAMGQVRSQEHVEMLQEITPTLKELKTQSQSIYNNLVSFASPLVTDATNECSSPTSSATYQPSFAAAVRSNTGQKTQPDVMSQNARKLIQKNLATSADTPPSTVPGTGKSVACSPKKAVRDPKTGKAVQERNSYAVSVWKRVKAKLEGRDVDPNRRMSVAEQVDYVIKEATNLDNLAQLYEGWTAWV

SMILES: C[C@@H]1C[C@@H]([C@H](O)CC2CC(=O)NC(=O)C2)C(=O)[C@@H](C)C1 [CHX, cyclohexamide]
- inhibition of NMD [1]: inhibited NMD

SMILES: C=C1[C@@H](O)[C@@H]2O[C@]3(CC[C@H](/C=C/[C@@H](C)[C@@H]4CC(C)=C[C@@]5(O[C@H](C[C@@](C)(O)C(=O)O)CC[C@H]5O)O4)O3)CC[C@H]2O[C@@H]1[C@@H](O)C[C@H](C)[C@H]1O[C@@]2(CCCCO2)CC[C@H]1C [okadaic acid]
- upwardly shifted (phosphorylated) band of hUpf1/SMG-2 [2]: upwardly shifted band of hUpf1/SMG-2 appears

SMILES: Cn1c(=O)c2c(ncn2C)n(C)c1=O [caffeine]
- IC50 (6H-hSMG-1; FIG. 27): ~300 µM
- accumulation of BGG 39PTC mRNA [1]: resulted in the accumulation of BGG 39PTC
- inhibition of the upward shift of hUpf1/SMG-2 [3]: inhibited the upward shift

SMILES: COC[C@H]1OC(=O)c2coc3c2[C@@]1(C)C1=C(C3=O)[C@@H]2CCC(=O)[C@@]2(C)C[C@H]1OC(C)=O [wortmannin]
- IC50 (6H-hSMG-1; FIG. 26): ~0.06 µM
